# Test results reported in ChEMBL document CHEMBL1201862, “PubChem BioAssay data set” (2004).
#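 96-well plates; 48 h exposure; 5 concentrations. Endpoints by linear interpolation between flanking doses. Not reached: highest tested concentration assigned. GI50: concentration for 50% inhibition of growth.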 The source made the active and inactive calls. No stated cut-off is given here; in the data, active = GI50 up to about 1.1 µM and inactive = higher.
# Assays:
# Experiment in all cases: growth of human tumour cells (NCI), 48 h
# MOLT-4 = test system: MOLT-4
# NCI-H460 = test system: NCI-H460
# SN12C = test system: SN12C
# UO-31 = test system: UO-31
# HCT-116 = test system: HCT-116
# CCRF-CEM = test system: CCRF-CEM
# NCI-H23 = test system: NCI-H23
# EKVX = test system: EKVX
# SK-OV-3 = test system: SK-OV-3
# SF-268 = test system: SF-268
# SW-620 = test system: SW-620
# RXF 393 = test system: RXF 393
# HT-29 = test system: HT-29
# RPMI-8226 = test system: RPMI-8226
# A549 = test system: A549
# OVCAR-5 = test system: OVCAR-5
# COLO 205 = test system: COLO 205
# K562 = test system: K562
# UACC-62 = test system: UACC-62
# HCC 2998 = test system: HCC 2998
Compound,GI50 (MOLT-4),GI50 (NCI-H460),GI50 (SN12C),GI50 (UO-31),GI50 (HCT-116),GI50 (CCRF-CEM),GI50 (NCI-H23),GI50 (EKVX),GI50 (SK-OV-3),GI50 (SF-268),GI50 (SW-620),GI50 (RXF 393),GI50 (HT-29),GI50 (RPMI-8226),GI50 (A549),GI50 (OVCAR-5),GI50 (COLO 205),GI50 (K562),GI50 (UACC-62),GI50 (HCC 2998)
C/C(=C\c1ccc(Cl)cc1)C(C)(C)C(=O)O,> 100 µM (inactive),> 100 µM (inactive),> 100 µM (inactive),> 100 µM (inactive),> 100 µM (inactive),52.5 µM (inactive),> 100 µM (inactive),> 100 µM (inactive),> 100 µM (inactive),> 100 µM (inactive),> 100 µM (inactive),> 100 µM (inactive),> 100 µM (inactive),> 100 µM (inactive),> 100 µM (inactive),> 100 µM (inactive),> 100 µM (inactive),1.95 µM (inactive),> 100 µM (inactive),> 100 µM (inactive)
N#C/C(=C\c1ccc(Br)cc1)c1nc(-c2cc3ccccc3oc2=O)cs1,> 50 µM (inactive),16.7 µM (inactive),20 µM (inactive),20.2 µM (inactive),17.5 µM (inactive),41.8 µM (inactive),,13.3 µM (inactive),18.9 µM (inactive),14.5 µM (inactive),19.8 µM (inactive),19.2 µM (inactive),23.3 µM (inactive),44.1 µM (inactive),35.1 µM (inactive),31 µM (inactive),> 50 µM (inactive),37.2 µM (inactive),10.2 µM (inactive),19.6 µM (inactive)
CC(C)CCC1CC2C(=O)N(c3ccccc3)C(=O)C2c2[nH]c3ccccc3c21 (stereo not drawn),2.77 µM (inactive),1.13 µM (inactive),2.67 µM (inactive),6.28 µM (inactive),,1.33 µM (inactive),2.79 µM (inactive),1.55 µM (inactive),1.36 µM (inactive),2.05 µM (inactive),0.796 µM (active),0.83 µM (active),3.4 µM (inactive),1.08 µM (active),0.412 µM (active),17.5 µM (inactive),1.38 µM (inactive),0.571 µM (active),6.21 µM (inactive),1.42 µM (inactive)
O=C1C2C(C(=O)N1OS(=O)(=O)c1ccccc1)N(Cc1ccccc1)C(=O)N2Cc1ccccc1 (stereo not drawn),> 100 µM (inactive),> 100 µM (inactive),> 100 µM (inactive),> 100 µM (inactive),> 100 µM (inactive),> 100 µM (inactive),> 100 µM (inactive),> 100 µM (inactive),> 100 µM (inactive),> 100 µM (inactive),> 100 µM (inactive),70.8 µM (inactive),> 100 µM (inactive),> 100 µM (inactive),> 100 µM (inactive),> 100 µM (inactive),> 100 µM (inactive),> 100 µM (inactive),> 100 µM (inactive),> 100 µM (inactive)
CC(NNC(=O)c1cc[n+]([BH2-]C#N)cc1)c1ccc(F)cc1 (stereo not drawn),> 100 µM (inactive),> 100 µM (inactive),> 100 µM (inactive),> 100 µM (inactive),> 100 µM (inactive),> 100 µM (inactive),> 100 µM (inactive),> 100 µM (inactive),> 100 µM (inactive),> 100 µM (inactive),> 100 µM (inactive),> 100 µM (inactive),> 100 µM (inactive),> 100 µM (inactive),> 100 µM (inactive),> 100 µM (inactive),> 100 µM (inactive),> 100 µM (inactive),> 100 µM (inactive),> 100 µM (inactive)
